Experimental data: patent US5439892A, “Dextrin sulfates as anti HIV-1 agents and composition thereof” (ML Laboratories, priority 1990, dated 1995)
Where two headings read alike, the source gives them in different places.

Legend:
HIV-1 (RF) [1] = assay: microbe, parasite or virus in culture; format: cell-based; conditions: for decrease in infectivity titre: RF
Protocol: The human T-leukamic cell line C8166 was grown in RPMI 1640 with 10% FCS.
Various strains of HIV-1 (RF. IIIB, CBL-4, Z84 and Z129) were produced in chronically infected H9 cells. A five-fold excess of uninfected H9 cells was added to the culture five days prior to harvesting the supernatant which is clarified by centrifugation and stored in liquid nitrogen.
Induction of cytopathic effects on CD4^+ C8166 by HIV was assayed by multi-nucleated giant cell formation (syncytia).
(§1) HIV-1 (RF) was titrated in 10-fold dilutions onto C8166 cells in the presence of varying concentrations of drug. […] The figures in the table represent the logarithm to the base 10 of the figure actually determined. For instance, a figure of -6 in the table represents a determined result of 10^-6.

HIV-1 (RF) [2] = format: cell-based
Text: as §1

HIV-1 IIIB = assay: decrease in infectivity titre in C8166 cells, HIV-1 IIIB; format: cell-based; conditions: for decrease in infectivity titre: IIIB, C8166 cells
HIV-1 CBL-4 = assay: decrease in infectivity titre in C8166 cells, HIV-1 CBL-4; format: cell-based; conditions: for decrease in infectivity titre: CBL-4, C8166 cells
[3] = toxicity: cell viability by [3H]-thymidine uptake in PHA-stimulated human PBL; format: cell-based; conditions: human, pha-stimulated pbl, 3 days, mean of quadruplicate, read-out: Thymidine uptake (% of control with no drug)
Protocol: (§2) Normal human peripheral blood lymphocytes (PBL) were fractionated on Ficoll-Hypaque (Pharmacia Chemicals, Uppsala, Sweden) from venous blood collected in preservative-free heparin. They were mitogenetically stimulated with phytohaemaglutinin (PHA) (1 ug/ml) for 3 days and maintained in the medium RPMI 1640 supplemented by 20% foetal calf serum (FCS)+interleukin-2 (IL2) ([…]).
(§3) The relative toxicities of the materials tested in example 4 were evaluated by reference to cell viability in the presence of the drugs as measured by the relative uptake of [^3 H]- thymidine. Human PBL (10^6 cells/well) in 96 microtitre plates was stimulated with PHA in the presence of increasing concentration of drug for 3 days. Following a 5 hour probe with [^3 H]- thymidine (0.5 uCi/well), the cells were harvested and counted. The results shown represent the mean of quadruplicate experiments and are presented as the percentage incorporation of [^3 H]-thymidine in the presence of drug, compared to control experiments without drug.

Human PBL = assay: as above; format: cell-based; conditions: around 200 ug/ml
Protocol: as §2, §3

IIIb = assay: minimum concentration inhibiting syncytia formation in M8166 JH11 cells, IIIb; format: cell-based, HIV-1; conditions: 10^3 TCID
Protocol: (§4) 50 ul samples of dextran sulphate and of the 2-, 3- and 6-sulphate derivatives of dextrin of Examples 3, 1 and 2 respectively were pre-incubated at 37° C. onto duplicate cultures of 4×10^5M8166 JH11 cells per ml (50 ul) at final concentrations of […] for one hour.

RF = assay: minimum concentration inhibiting syncytia formation in M8166 JH11 cells, RF; format: cell-based, HIV-1; conditions: for inhibitory concentration (minimum concentration at which syncytia formation was <10% that of controls): RF, 10^3 TCID, M8166 JH11 cells
Protocol: as §4

RUT = assay: minimum concentration inhibiting syncytia formation in M8166 JH11 cells, RUT; format: cell-based, HIV-1; conditions: 10^2 TCID
Protocol: as §4

CBL20 = assay: minimum concentration inhibiting syncytia formation in M8166 JH11 cells, CBL20; format: cell-based, HIV-1; conditions: 10^3 TCID
Protocol: as §4

Bovine Thrombin = assay: anti-coagulant activity: clot formation time of pooled normal plasma after bovine thrombin; format: biochemical; conditions: comparison among dextrin sulphates
Protocol: The materials to be tested were each dissolved in veronal buffer to a concentration of 1 mg/ml=1000 ug/ml and a further dilution of 100 ug/ml was made by a 1:10 dilution in veronal buffer. Pooled normal plasma (1 ml) was then placed into each of nine plastic tubes. The solutions containing the materials to be tested were then added to the plasma to achieve a range of final concentrations from 1-300 ug/ml, in each case the volume being made up to 1.5 ml with veronal buffer. The resultant mixtures were incubated at 37° C. for 30 minutes, following which two 0.2 ml aliquots were extracted from each sample into glass tubes (Samples A and B), and 0.1 ml 7 U Bovine Thrombin was added and clot formation timed.

HIV-1 [4] = assay: inhibition of syncytia formation, overall over IIIb, RF, RUT, CBL20; format: cell-based; conditions: compared with dextran sulphate (MW 8,000) and dextrin 3-sulphate
Protocol: as §4

HIV-1 [5] = assay: activity against HIV-1 virus (general statement); conditions: comparison among dextrin sulphates
[6] = 0.1 ug/ml, HIV-1 (RF), C8166 cells
[7] = 1.0 ug/ml, HIV-1 (RF), C8166 cells
[8] = 10 ug/ml, HIV-1 (RF), C8166 cells
[9] = 100 ug/ml, HIV-1 (RF), C8166 cells
[10] = Human immunodeficiency virus 1, C8166, read-out: decrease in infectivity titre
[11] = Human immunodeficiency virus 1, IIIB, C8166, read-out: decrease in infectivity titre

| Compound | Final dilution of the virus at which syncytia are produced (logarithm to the base 10) (HIV-1 (RF) [1]; [6]) | Final dilution of the virus at which syncytia are produced (logarithm to the base 10) (HIV-1 (RF) [1]; [7]) | Final dilution of the virus at which syncytia are produced (logarithm to the base 10) (HIV-1 (RF) [1]; [8]) | Final dilution of the virus at which syncytia are produced (logarithm to the base 10) (HIV-1 (RF) [1]; [9]) | Inhibition of HIV-1 (RF), live cell (C8166) reduction of MTT, estimated visually (HIV-1 (RF) [2]; 1.0 ug/ml) | Inhibition of HIV-1 (RF), live cell (C8166) reduction of MTT, estimated visually (HIV-1 (RF) [2]; 10 ug/ml) | inhibitory concentration (minimum concentration at which syncytia formation was <10% that of controls) (IIIb) [µg/µL] | inhibitory concentration (minimum concentration at which syncytia formation was <10% that of controls) (RF) [µg/µL] | inhibitory concentration (minimum concentration at which syncytia formation was <10% that of controls) (RUT) [µg/µL] | inhibitory concentration (minimum concentration at which syncytia formation was <10% that of controls) (CBL20) [µg/µL] | anti-coagulant activity in words (Bovine Thrombin) | overall effectiveness (HIV-1 [4]) | anti-HIV activity in words (HIV-1 [5]) | also measured |
| --- | --- | --- | --- | --- | --- | --- | --- | --- | --- | --- | --- | --- | --- | --- |
| Cc1cn([C@H]2C[C@H](N=[N+]=[N-])[C@@H](CO)O2)c(=O)[nH]c1=O [AZT, zidovidine] | -4 | -3.5 | -3 | -3 | - | - |  |  |  |  |  |  |  | log reduction at 10 µg/mL (HIV-1 (RF) [1]; [10]): 3; log reduction at 50 µg/mL (HIV-1 (RF) [1]; [10]): 3; log reduction at 1 µg/mL (HIV-1 (RF) [1]; Human immunodeficiency virus 1, C8166, read-out: inhibition (reduction of the infectious titre)): 2.5; log reduction at 10 µg/mL (HIV-1 (RF) [1]; Human immunodeficiency virus 1, C8166, read-out: reduction of the infectious titre): 3; Inhibition of HIV-1 (RF), live cell (C8166) reduction of MTT, estimated visually (HIV-1 (RF) [2]; 0.1 ug/ml): -; log reduction at 10 µg/mL (HIV-1 IIIB; [11]): 4; log reduction at 50 µg/mL (HIV-1 IIIB; [11]): 4; log reduction at 10 µg/mL (HIV-1 CBL-4; [10]): 4; log reduction at 50 µg/mL (HIV-1 CBL-4; [10]): 4; viability at 72 h ([3]; 5 ug/ml): 20%; viability at 72 h ([3]; 10 ug/ml): 15%; viability at 72 h ([3]; 25 ug/ml): 5%; viability at 72 h ([3]; 50 ug/ml): 2%; viability at 72 h ([3]; 71 ug/ml): 1%; viability at 72 h ([3]; 100 ug/ml): 1%; viability at 72 h ([3]; 200 ug/ml): 0%; toxicity in words (Human PBL): very highly toxic |
| dextrin 6-sulphate |  |  |  |  |  |  | 5 | 5 | 50 | > 50 | greater anti-coagulant activity | overall greater effectiveness |  |  |
| dextrin 2-sulphate |  | -4 | -2 | -2 | - | - | 5 | 5 | 5 | 50 | least anti-coagulant | overall greater effectiveness | about the same activity against the HIV-1 virus as the dextrin 6sulphate | inhibition (reduction of the infectious titre) (HIV-1 (RF) [1]; 1 ug/ml, HIV-1 (RF), C8166 cells): 2 logs; reduction of the infectious titre (HIV-1 (RF) [1]; [8]): 3 logs; decrease in infectivity titre (HIV-1 (RF) [1]; 10 ug/ml, C8166 cells): 5 log units; decrease in infectivity titre (HIV-1 (RF) [1]; 50 ug/ml, C8166 cells): 6 log units; inhibition of syncytial induction on C8166 cells (HIV-1 (RF) [1]; compared with AZT and dextran sulphate): inhibits syncytial induction on C8166 cells with greater effect than either AZT or dextran sulphate; decrease in infectivity titre (HIV-1 IIIB; 10 ug/ml): 3 log units; decrease in infectivity titre (HIV-1 IIIB; 50 ug/ml): 5 log units; decrease in infectivity titre (HIV-1 CBL-4; 10 ug/ml): 0 log units; decrease in infectivity titre (HIV-1 CBL-4; 50 ug/ml): 4 log units |
| dextrin 3-sulphate |  |  |  |  |  |  | 50 | 5 | 50 | > 50 | least anti-coagulant |  | relatively poor anti-HIV activity, by comparison with dextrin 2- and 6-sulphates | effectiveness against RF (RF; compared with dextran sulphate (MW 8,000)): more effective than dextran sulphate against RF |
| Dextran | -6 | -6 | -6 |  |  | - |  |  |  |  |  |  |  | effect against HIV replication (HIV-1 (RF) [1]; HIV-1 (RF), C8166 cells): ineffective against HIV replication |
